Data as given in patent publication US20240270715A1, “INHIBITORS OF TRANSGLUTAMINASES” (ZEDIRA GMBH, priority 2021, published 2024).

Experiments:
[1] = target: T1, recombinant human transglutaminase 2 (Homo sapiens, UniProt P21980); test: Transglutaminase assay: incorporation of dansylcadaverine into dimethylcasein (DCC-assay); type: biochemical; settings: recombinant human TG2 10 nM, dansylcadaverine/dimethylcasein; read-out: IC50 TG2
T1 sequence (P21980 1-687): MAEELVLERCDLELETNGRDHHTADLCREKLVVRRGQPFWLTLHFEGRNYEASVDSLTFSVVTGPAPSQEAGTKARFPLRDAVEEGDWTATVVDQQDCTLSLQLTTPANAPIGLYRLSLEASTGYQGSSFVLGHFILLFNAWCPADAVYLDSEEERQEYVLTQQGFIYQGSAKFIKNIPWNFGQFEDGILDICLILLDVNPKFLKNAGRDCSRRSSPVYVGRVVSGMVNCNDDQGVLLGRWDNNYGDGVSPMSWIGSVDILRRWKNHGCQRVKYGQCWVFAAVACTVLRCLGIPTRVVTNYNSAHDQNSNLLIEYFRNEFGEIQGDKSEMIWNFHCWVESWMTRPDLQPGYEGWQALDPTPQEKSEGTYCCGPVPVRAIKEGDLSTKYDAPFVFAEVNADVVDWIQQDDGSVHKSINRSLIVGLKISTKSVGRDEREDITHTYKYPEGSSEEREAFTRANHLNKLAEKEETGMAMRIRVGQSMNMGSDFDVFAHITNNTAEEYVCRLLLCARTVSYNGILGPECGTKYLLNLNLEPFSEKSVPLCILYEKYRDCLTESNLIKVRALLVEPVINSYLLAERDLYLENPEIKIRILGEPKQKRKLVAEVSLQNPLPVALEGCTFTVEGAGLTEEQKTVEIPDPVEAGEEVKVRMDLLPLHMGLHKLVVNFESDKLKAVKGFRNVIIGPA
Protocol: To illustrate the advantage of branched alkyl moieties over aromatic moieties, we refer to reference compounds Ref. 2 (ZED1227, U.S. Pat. No. 9,434,763 B2) and Ref. 3 (A8, ZED1047). Inhibition data were determined using the classical fluorescent transamidation assay (dansylcadaverine incorporation into methylated casein, DCC-assay) as described [Büchold, C.; Hils, M.; Gerlach, U.; Weber, J.; Pelzer, C.; Heil, A.; Aeschlimann, D.; Pasternack, R. Features of ZED1227: The First-In-Class Tissue Transglutaminase Inhibitor Undergoing Clinical Evaluation for the Treatment of Celiac Disease. Cells 2022, 11, 1667. https://doi.org/10.3390/cells11101667]. Casein is one of the best known high molecular weight (24 kDa) protein substrates for transglutaminases. Please note, the IC50 value of Ref. 3 (A8) published in U.S. Pat. No. 9,434,763 B2 cannot be compared to the present data, relying on a fluorogenic isopeptidase assay.
To this extent, inhibition data were determined using the classical fluorescent transamidation assay (dansylcadaverine incorporation into methylated casein, DCC-assay) as described in Büchold et al. [Büchold, C.; Hils, M.; Gerlach, U.; Weber, J.; Pelzer, C.; Heil, A.; Aeschlimann, D.; Pasternack, R. Features of ZED1227: The First-In-Class Tissue Transglutaminase Inhibitor Undergoing Clinical Evaluation for the Treatment of Celiac Disease. Cells 2022, 11, 1667. https://doi.org/10.3390/cells11101667]. Casein is one of the best known high molecular weight (24 kDa) protein substrates for transglutaminases. Inhibition data of the inventive compounds was compared with inhibition of compounds disclosed in U.S. Pat. No. 9,434,763 B2, particularly, compound A8, which is denoted herein as Reference 3. It is noteworthy that the IC50 values of compounds A8 published in U.S. Pat. No. 9,434,763 B2 and E16 from U.S. Pat. No. 11,072,634 B2 cannot be compared to the present data, relying on a fluorogenic isopeptidase assay.
For the determination of potency of inhibitors against tissue transglutaminase, the incorporation of dansylcadaverine into dimethylcasein (Zedira product T036, Lorand et al., Anal Biochem, 1971, 44:221-31) was measured using recombinant human transglutaminase 2 (Zedira Product T022).
The tissue transglutaminase is diluted in buffer (50 mM Tris-HCl, 7.5 mM CaCl2, 150 mM NaCl, pH=7.4). The final concentration of TG2 in the assay is 10 nM.
A 10 mM inhibitor stock solution is prepared in DMSO, and from this a serial 1:2-fold dilution series is prepared also in DMSO. Each of the initial dilutions is subsequently diluted 1:50-fold with buffer (50 mM Tris-HCl, 7.5 mM CaCl2, 150 mM NaCl, pH=7.4) to yield the final working dilutions containing 2% (v/v) DMSO. 15 μl of inhibitor working dilution are added per well of a 96 well microtiter plate. As control, 15 μl of a 2% (v/v) DMSO solution prepared using the buffer mentioned above are added per well.
Immediately before starting the assay, 600 μl transglutaminase working solution are added to 11.4 ml assay buffer (50 mM Tris-HCl, 10 mM CaCl2, 10 mM glutathione, 2.5% glycerol, 16.7 μM dansylcadaverine, 4 μM N,N-dimethylcasein, 200 mM NaCl, pH=8.0). 285 μl of this reaction mix are added per well containing the inhibitor.
Increase in fluorescence is measured using λex=330 nm and λemG=500 nm at […] for 30 min. A slope of the increase in fluorescence between 20 and 30 min is calculated for determination of the IC50 value (inhibitor concentration at which 50% of the initial activity is blocked).
Analysis of enzymatic activity is performed by calculation of the slope of an increase in fluorescence intensity. IC50 values are calculated by plotting the enzymatic activity (as percentage from control containing 2% DMSO instead of inhibitor) against the inhibitor concentration. IC50 is defined as the inhibitor concentration blocking 50% of initial enzyme activity.

[2] = Log D by shake flask method (octanol / PBS pH 7.4, HPLC); type: physicochemical; settings: octanol / PBS pH 7.4, shake flask; read-out: logD
Protocol: In order to classify the inventive compounds according to their lipophilicity, Log D values (distribution coefficient) were determined by means of the well-established shake flask method, measuring the partition of a compound between an octanol and phosphate-buffered saline (PBS, pH 7.4) by HPLC.
Compounds with a moderate lipophilicity (Log D values from 0 to 3) are usually advantaged for oral absorption, being in balance between solubility and permeability. However, sophisticated formulation of a compound might improve oral bioavailability for highly lipophilic compounds.

[3] = Caco-2 permeability assay (CacoReady kit); type: in vitro ADME; settings: human
Protocol: Permeability coefficients (Papp values) were obtained from Caco-2 barrier studies predicting oral/intestinal bioavailability of the tested compounds. The assays were performed by using CacoReady™ ready-to-use kits from ReadyCell according to the manufacturers protocol.

SMILES | IC50 [1] | logD [2] | Papp [3]
CCNC(=O)C(=O)CC[C@H](NC(=O)c1cncn1C)C(=O)Nc1cccn(CC(=O)NC[C@@H]2CC[C@H]3C[C@@H]2C3(C)C)c1=O [Compound I-13, (S)-N1-(1-(2-(((1S,2R,5S)-6,6-dimethylbicyclo[3.1.1]heptan-2-yl)methylamino)-2-oxoethyl)-2-oxo-1,2-dihydropyridin-3-yl)-N6-ethyl-2-(1-methyl-1H-imidazole-5-carboxamido)-5-oxohexanediamide] | 600 to 3500 nM | 1 to 3 | < 1 ×10⁻⁶ cm/s
CCNC(=O)C(=O)CC[C@H](NC(=O)c1cncn1C)C(=O)Nc1cccn(CC(=O)NC[C@@H]2CC[C@@H]3C[C@H]2C3(C)C)c1=O [Compound I-14, (S)-N1-(1-(2-(((1R,2R,5R)-6,6-dimethylbicyclo[3.1.1]heptan-2-yl)methylamino)-2-oxoethyl)-2-oxo-1,2-dihydropyridin-3-yl)-N6-ethyl-2-(1-methyl-1H-imidazole-5-carboxamido)-5-oxohexanediamide] | 150 to 600 nM | 1 to 3 | < 1 ×10⁻⁶ cm/s
CCNC(=O)C(=O)CC[C@H](NC(=O)c1nccn1C)C(=O)Nc1cccn(CC(=O)NC23CC4CC(CC(CC)(C4)C2)C3)c1=O [Compound I-16, (S)-N1-ethyl-N6-(1-(2-(3-ethyladamantane-1-amino)-2-oxoethyl)-2-oxo-1,2-dihydropyridin-3-yl)-5-(1-methyl-1H-imidazole-2-carboxamido)-2-oxohexanediamide] | 600 to 3500 nM | 1 to 3 | < 1 ×10⁻⁶ cm/s
CCNC(=O)C(=O)CC[C@H](NC(=O)c1c(C)ncn1C)C(=O)Nc1cccn(CC(=O)NC23CC4CC(C)(CC(C)(C4)C2)C3)c1=O [Compound I-21, (S)-2-(1,4-dimethyl-1H-imidazole-5-carboxamido)-N6-ethyl-N1-(1-(2-(3,5-dimethyladamantane-1-amino)-2-oxoethyl)-2-oxo-1,2-dihydropyridin-3-yl)-5-oxohexanediamide] | 600 to 3500 nM | 1 to 3 | < 1 ×10⁻⁶ cm/s
CCNC(=O)C(=O)CC[C@H](NC(=O)c1cn(C)cn1)C(=O)Nc1cccn(CC(=O)NC23CC4CC(C)(CC(C)(C4)C2)C3)c1=O [Compound I-22, (S)-N1-ethyl-N6-(1-(2-(3,5-dimethyladamantane-1-amino)-2-oxoethyl)-2-oxo-1,2-dihydropyridin-3-yl)-5-(1-methyl-1H-imidazole-4-carboxamido)-2-oxohexanediamide] | 600 to 3500 nM | 1 to 3 | < 1 ×10⁻⁶ cm/s
CCNC(=O)C(=O)CC[C@H](NC(=O)c1nccn1C)C(=O)Nc1cccn(CC(=O)NC23CC4CC(C)(CC(C)(C4)C2)C3)c1=O [Compound I-23, (S)-N1-ethyl-N6-(1-(2-(3,5-dimethyladamantane-1-amino)-2-oxoethyl)-2-oxo-1,2-dihydropyridin-3-yl)-5-(1-methyl-1H-imidazole-2-carboxamido)-2-oxohexanediamide] | 600 to 3500 nM | 1 to 3 | < 1 ×10⁻⁶ cm/s
CCNC(=O)C(=O)CC[C@H](NC(=O)c1cnc(C)n1C)C(=O)Nc1cccn(CC(=O)NC23CC4CC(C)(CC(C)(C4)C2)C3)c1=O [Compound I-24, (S)-2-(1,2-dimethyl-1H-imidazole-5-carboxamido)-N6-ethyl-N1-(1-(2-(3,5-dimethyladamantane-1-amino)-2-oxoethyl)-2-oxo-1,2-dihydropyridin-3-yl)-5-oxohexanediamide] | 150 to 600 nM | 1 to 3 | < 1 ×10⁻⁶ cm/s

Further lines, results first:

IC50 [1] | logD [2] | Papp [3] | SMILES
600 to 3500 nM | 1 to 3 | < 1 ×10⁻⁶ cm/s | CCNC(=O)C(=O)CC[C@H](NC(=O)c1cn(C)cn1)C(=O)Nc1cccn(CC(=O)NC23CC4CC(CC(CC)(C4)C2)C3)c1=O [Compound I-15, (S)-N1-ethyl-N6-(1-(2-(3-ethyladamantane-1-amino)-2-oxoethyl)-2-oxo-1,2-dihydropyridin-3-yl)-5-(1-methyl-1H-imidazole-4-carboxamido)-2-oxohexanediamide]
600 to 3500 nM | 1 to 3 | < 1 ×10⁻⁶ cm/s | CCNC(=O)C(=O)CC[C@H](NC(=O)c1c(C)ncn1C)C(=O)Nc1cccn(CC(=O)NC23CC4CC(CC(CC)(C4)C2)C3)c1=O [Compound I-17, (S)-2-(1,4-dimethyl-1H-imidazole-5-carboxamido)-N6-ethyl-N1-(1-(2-(3-ethyladamantane-1-amino)-2-oxoethyl)-2-oxo-1,2-dihydropyridin-3-yl)-5-oxohexanediamide]
600 to 3500 nM | 3 to 5 | < 1 ×10⁻⁶ cm/s | CCNC(=O)C(=O)CC[C@H](NC(=O)c1cn(CC(C)C)cn1)C(=O)Nc1cccn(CC(=O)NC23CC4CC(CC(CC)(C4)C2)C3)c1=O [Compound I-18, (S)-N1-ethyl-5-(1-isobutyl-1H-imidazole-4-carboxamido)-N6-(1-(2-(3-ethyladamantane-1-amino)-2-oxoethyl)-2-oxo-1,2-dihydropyridin-3-yl)-2-oxohexanediamide]
600 to 3500 nM | 3 to 5 | < 1 ×10⁻⁶ cm/s | CCNC(=O)C(=O)CC[C@H](NC(=O)c1cn(C2CCCC2)cn1)C(=O)Nc1cccn(CC(=O)NC23CC4CC(CC(CC)(C4)C2)C3)c1=O [Compound I-19, (S)-2-(1-cyclopentyl-1H-imidazole-4-carboxamido)-N6-ethyl-N1-(1-(2-(3-ethyladamantane-1-amino)-2-oxoethyl)-2-oxo-1,2-dihydropyridin-3-yl)-5-oxohexanediamide]
600 to 3500 nM | 1 to 3 | < 1 ×10⁻⁶ cm/s | CCNC(=O)C(=O)CC[C@H](NC(=O)c1cn(C2CCC2)cn1)C(=O)Nc1cccn(CC(=O)NC23CC4CC(CC(CC)(C4)C2)C3)c1=O [Compound I-20, (S)-2-(1-cyclobutyl-1H-imidazole-4-carboxamido)-N6-ethyl-N1-(1-(2-(3-ethyladamantane-1-amino)-2-oxoethyl)-2-oxo-1,2-dihydropyridin-3-yl)-5-oxohexanediamide]
